Test results taken from publication PMC6938330, “Crystal structures of p120RasGAP N-terminal SH2 domain in its apo form and in complex with a p190RhoGAP phosphotyrosine peptide” (PLoS ONE, 2019).
Values joined by “and” are separate entries in the source; they are usually repeats but may differ in a detail not shown here. Equal entries are not always repeated. Where a SMILES comes first, the peptide text is derived from it. [ ]: non-standard residue; d: D form. pY = N[C@@H](Cc1ccc(OP(=O)(O)O)cc1)C(=O)O

Tests used:
[1] = molecular target: T1, N-terminal SH2 domain of p120RasGAP (Homo sapiens, UniProt P20936, C236S/C261S); assay: Isothermal titration calorimetry (ITC), wild-type N-SH2; conditions: 20mM Tris 7.4, 150mM NaCl, independent binding model
T1 construct: cDNA of residues 174 through 280 of human p120RasGAP (UniProt ID: P20936); made in house; host or cells: E. coli Rosetta(DE3)
T1 sequence (P20936 174-280 C236S/C261S): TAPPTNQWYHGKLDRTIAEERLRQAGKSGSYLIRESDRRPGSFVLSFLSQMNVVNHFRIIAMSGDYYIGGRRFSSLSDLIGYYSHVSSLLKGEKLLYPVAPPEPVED
Description: (§1) cDNA of residues 174 through 280 of human p120RasGAP (UniProt ID: P20936) encoding the N-terminal SH2 domain tagged was subcloned into a modified pET28a vector with an N-terminal hexahistidine tag and TEV protease recognition sequence. Two native cysteines, C236 and C261, were mutated to serine to prevent disulfide bridge formation. Following transformation into Rosetta(DE3) cells, a 1L culture was induced overnight at OD600 of 0.6–0.8 and 18°C using 0.2 mM IPTG. Cells were harvested by centrifugation and resuspended in lysis buffer (50 mM HEPES pH 7.3, 500 mM NaCl). Lysis was facilitated by lysozyme addition and three freeze/thaw cycles, prior to sonication and DNAse I addition. Clarified lysate was prepared by centrifugation at 5000 x g at 4°C and incubated with nickel beads (Ni-NTA Agarose, Qiagen) for 1 hr at 4°C to capture hexahistidine-tagged protein. Following washing with 3 column volumes of wash buffer (50 mM HEPES pH 7.3, 500 mM NaCl, 20mM imidazole), TEV protease was added overnight at 4 °C to cleave the SH2 domain protein from the hexahistidine-tag. The next day, flow through containing tag-free SH2 domain protein was collected and the beads were washed with several column volumes of wash buffer to fully remove the cleaved protein from the beads. Size exclusion chromatography (Superdex 75, GE Healthcare) was performed on p120RasGAP N-SH2 in 20 mM Tris pH 7.4 and 150 mM NaCl. Yield was 20 mg/L culture. Protein was concentrated by centrifugal filter (Amicon Ultra, Millipore Sigma).
(§2) A synthetic 13 amino acid peptide of sequence EEENI(p-Tyr)SVPHDST native to p190RhoGAP residues 1100 to 1112 phosphorylated at Tyr-1105, with N-terminal acetylation and C-terminal amidation, was commercially synthesized (GenScript) and re-suspended in sterile-filtered water.
(§3) The N-SH2 protein and pTyr1105 peptide were prepared for ITC by overnight dialysis in a common buffer with a 20mM Tris 7.4, 150mM NaCl composition. Slide-A-Lyzer Dialysis Cassettes with a molecular weight cut-off of 3,500 Da were used for protein dialysis and Micro Float-A-Lyzer Dialysis devices with a 100–500 Da cut-off for peptide dialysis. Samples were retrieved from their cartridges, spun down for 10 minutes at 4°C. Concentrations were measured using a Nanodrop spectrophotometer at 280 nm. To determine peptide concentration, a phosphotyrosine extinction coefficient of 458.6 M^-1cm^-1 at pH 7.4 was used. Two ITC experiments were performed using a Nano-ITC (TA Instruments). Both protein and peptide were degassed for 3 minutes prior to loading. 350 μL of protein were injected into the sample cell. The injection burette was loaded with 52 μL of peptide. 20 injections of 2.5 μL of peptide, each spanning 300 seconds, were performed per ITC run. Results were analyzed using the nano-ITC software, through fitting to an independent binding model.
We conducted isothermal titration calorimetry to assess the interaction between the N-terminal SH2 domain of p120RasGAP and the p190RhoGAP pTyr-1105 peptide. We injected the p190RhoGAP pTyr-1105 peptide at a concentration of 78.5 μM into N-SH2 at a concentration of 15 μM. Averaged over two independent experiments we observe a Kd of 0.3 ± 0.1 μM (Fig 5A).

[2] = test system: R207A mutated N-SH2 (p120RasGAP); assay: Isothermal titration calorimetry (ITC), R207A mutant N-SH2; assay type: binding, human
Description: (§4) A mutant form, with R207A mutation, was introduced by QuikChange mutagenesis (Agilent) using forward and reverse primers (5'-[…]-3', 5'- […]-3’). Expression and purification were by identical methods as wild type protein. Yield for the mutant was 4 mg/L culture. Both wild type and mutant constructs elute from size exclusion chromatography as monodisperse peaks.
as §2
as §3, with “Two ITC experiments were performed using a Nano-ITC (TA Instruments). Both protein and peptide were degassed for 3 minutes prior to loading. 350 μL of protein were injected into the sample cell. The injection burette was loaded with 52 μL of peptide. 20 injections of 2.5 μL of peptide, each spanning 300 seconds, were performed per ITC run.” left out, “model. […]” for “model.”

[3] = test system: wild-type p120RasGAP N-SH2; assay: Native PAGE gel shift, wild-type N-SH2; assay type: binding, human; conditions: saturating peptide concentrations; protein 0.08 mM, peptide 0.02 to 0.15 mM (peptide:protein 0.25 to 1.9); on ice 10 min; 50 mM Tris pH 7.4; 4–20% gel, pH 8.3, 200 V 1 h; Coomassie
Description: as §1, with “Size exclusion chromatography (Superdex 75, GE Healthcare) was performed on p120RasGAP N-SH2 in 20 mM Tris pH 7.4 and 150 mM NaCl. Yield was 20 mg/L culture. Protein was concentrated by centrifugal filter (Amicon Ultra, Millipore Sigma).” left out

[4] = test system: R207A mutant p120RasGAP N-SH2; assay: Native PAGE gel shift, R207A mutant N-SH2; assay type: binding, human; conditions: protein 0.08 mM, peptide 0.02 to 0.15 mM (peptide:protein 0.25 to 1.9); on ice 10 min; 50 mM Tris pH 7.4; 4–20% gel, pH 8.3, 200 V 1 h; Coomassie
Description: as §4, §2
A serial dilution series of pTyr-1105 phosphopeptide was performed in dilution buffer (50 mM Tris pH 7.4), and mixed with wild-type or R207A mutant N-terminal SH2 domain protein for a final protein concentration of 0.08 mM and a phosphopeptide concentration ranging from 0.02 mM to 0.15 mM (peptide:protein ratio ranging from 0.25 to 1.9). The protein-peptide mixtures, or protein alone as negative control, were incubated on ice for 10 minutes and then centrifuged for 1 minute at 4 °C. 10 μL of 2X native protein sample buffer (62.5 mM Tris HCL pH 6.8, 40% glycerol, 0.01% bromophenol blue) was then added to all samples. […]

[5] = molecular target: T2, p120RasGAP N-terminal SH2 domain (residues 174-280, C236S, C261S) (human, UniProt P20936 174-280, C236S | C261S); assay: ITC; peptide in the burette injected into N-SH2 in the cell (78.5 μM into 15 μM wild type; 120 μM into 15 μM R207A); 20 mM Tris 7.4, 150 mM NaCl; Nano-ITC, 20 injections of 2.5 μL; independent binding model; two runs; conditions: both partners purified
T2 construct: human p120RasGAP (RASA1), residues 174 through 280, the N-terminal SH2 domain; two native cysteines mutated to serine; The His6 tag was removed with TEV protease; also called p120RasGAP N-SH2; N-SH2; source: E. coli Rosetta(DE3), purified (Ni-NTA, TEV cleavage, Superdex 75 SEC); not shown: His6, N-terminal, cleaved
T2 sequence (looked up): T1 sequence (P20936 174-280 C236S/C261S)

[6] = molecular target: p190RhoGAP pTyr-1105 peptide pTyr-1105 peptide (Homo sapiens, UniProt Q9NRY4, pTyr1105); assay: ITC

Molecule: CC[C@H](C)[C@H](NC(=O)[C@H](CC(N)=O)NC(=O)[C@H](CCC(=O)O)NC(=O)[C@H](CCC(=O)O)NC(=O)[C@H](CCC(=O)O)NC(C)=O)C(=O)N[C@@H](Cc1ccc(OP(=O)(O)O)cc1)C(=O)N[C@@H](CO)C(=O)N[C@H](C(=O)N1CCC[C@H]1C(=O)N[C@@H](Cc1c[nH]cn1)C(=O)N[C@@H](CC(=O)O)C(=O)N[C@@H](CO)C(=O)N[C@H](C(N)=O)[C@@H](C)O)C(C)C [p190RhoGAP pTyr-1105 peptide] (Ac-EEENI[pY]SVPHDST-NH2)
- Kd ([1]; averaged over two independent ITC experiments, peptide at 78.5 μM injected into N-SH2 (residues 174-280, C236S/C261S) at 15 μM, 20 injections of 2.5 μL, 300 s each, read-out: Kd (dissociation constant)): 300 ± 100 nM
- TΔS ([1]; run 1 of two): -8.9 kcal/mol
- ΔG ([1]; run 1 of two): -8.7 kcal/mol
- ΔH ([1]; run 1 of two): -17.6 kcal/mol
- TΔS ([1]; run 2 of two): -4.9 kcal/mol
- ΔG ([1]; run 2 of two): -9.0 kcal/mol
- ΔH ([1]; run 2 of two): -13.9 kcal/mol
- interaction upon mutation of the FLVR motif arginine residue ([2]; R207A mutant, summarising statement of the Conclusions (ITC and native PAGE)): abolishes interaction
- heat of binding ([2]; peptide at 120 μM injected into R207A mutated N-SH2 at 15 μM, 20mM Tris 7.4, 150mM NaCl): do not observe measurable heat
- mobility shift in native gel [3]: significant increase in its mobility in the gel
- mobility shift in native gel [4]: fails to shift

B1: p190RhoGAP pTyr-1105 phosphopeptide EEENI(p-Tyr)SVPHDST (residues 1100-1112) (peptide)
peptide: Ac-EEENI[pY]SVPHDST-NH2
SMILES: CC[C@H](C)[C@H](NC(=O)[C@H](CC(N)=O)NC(=O)[C@H](CCC(=O)O)NC(=O)[C@H](CCC(=O)O)NC(=O)[C@H](CCC(=O)O)NC(C)=O)C(=O)N[C@@H](Cc1ccc(OP(=O)(O)O)cc1)C(=O)N[C@@H](CO)C(=O)N[C@H](C(=O)N1CCC[C@H]1C(=O)N[C@@H](Cc1c[nH]cn1)C(=O)N[C@@H](CC(=O)O)C(=O)N[C@@H](CO)C(=O)N[C@H](C(N)=O)[C@@H](C)O)C(C)C
notes: The sixth residue (Y) is phosphotyrosine; also called pTyr1105 peptide; source: synthetic peptide (GenScript)
- Kd [5]: 240 nM and 430 nM
- dH [5]: -17.6 kcal/mol and -13.9 kcal/mol
- stoichiometry N [5]: 0.724 and 0.63

B2: p120RasGAP N-terminal SH2 (protein)
chain: WYHGKLDRTIAEERLRQAGKSGSYLIRESDRRPGSFVLSFLSQMNVVNHFRIIAMCGDYYIGGRRFSSLSDLIGYYSHVSCLLKGEKLLYPV
- Kd [6]: 300 nM
